Experimental findings from US9120749B2, “Quinoline derivatives and MELK inhibitors containing the same” (ONCOTHERAPY SCIENCE, INC., priority 2010, dated 2015) are described below.

The subject of one experiment is A549 cells. The experiment can be described thus: Cell-based assay: anti-proliferative activity, Cell Counting Kit-8, 72 hours (A549). The following applies: 72 hours. A digest of the protocol: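 A549 cells seeded in 96-well plates and exposed to candidate inhibitors for 72 hours. Growth measured with Cell Counting Kit-8; IC50 values calculated from the dose response.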

The next experiment concerns 22Rv1 cells. The experiment can be described thus: Cell-based assay: anti-proliferative activity, Cell Counting Kit-8, 72 hours (22Rv1).
Another experiment has as its system DU4475 cells. The experiment is described as follows: Cell-based assay: anti-proliferative activity, Cell Counting Kit-8, 72 hours (DU4475). For orientation: Formazan colour is commonly taken as a measure of viable cells.
The test system of another experiment is HT-1197 cells. The experiment can be described thus: Cell-based assay: anti-proliferative activity, Cell Counting Kit-8, 72 hours (HT-1197, negative control without MELK expression). The following applies: HT1197 cells (negative control), 72 hours. The gist of the method: (§1)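 T47D, A549 and BT-549 cells, with MELK-negative HT-1197 as control (MELK status checked by western blot), seeded at 2,000–3,000 cells/well. Growth measured by CCK-8 72 hours after inhibitor exposure; IC50 values calculated.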

The subject of a further experiment is T47D cells. The experiment is described as follows: Cell-based assay: anti-proliferative activity, Cell Counting Kit-8, 72 hours (T47D). A digest of the protocol:
as §1

The next experiment deals with MELK (Homo sapiens, UniProt Q14680). The experiment can be described thus: Kinase assay: MELK activity, phosphorylation of FITC-labeled histone H3 peptide measured by IMAP fluorescence polarization. The experiment is classed as biochemical. The following applies: MELK kinase assay, IMAP fluorescence polarization, 50 micro-M ATP; read-out: IC50 (μM) (kinase assay). A digest of the protocol:
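A FITC-labelled histone H3 peptide served as substrate, with compounds serially diluted to 1% DMSO final. Reactions were stopped with three volumes of IMAP progressive binding solution. After 0.5 h at room temperature, fluorescence polarization was read.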
In general terms: Polarisation of emitted light reports the rotation of a fluorescent probe.

The structures appear in SMILES notation. Where a name gives a salt, the structure may show the parent alone. Read-outs that look alike come from different tables or passages of the source.

MELK, sequence (Q14680 whole entry, looked up): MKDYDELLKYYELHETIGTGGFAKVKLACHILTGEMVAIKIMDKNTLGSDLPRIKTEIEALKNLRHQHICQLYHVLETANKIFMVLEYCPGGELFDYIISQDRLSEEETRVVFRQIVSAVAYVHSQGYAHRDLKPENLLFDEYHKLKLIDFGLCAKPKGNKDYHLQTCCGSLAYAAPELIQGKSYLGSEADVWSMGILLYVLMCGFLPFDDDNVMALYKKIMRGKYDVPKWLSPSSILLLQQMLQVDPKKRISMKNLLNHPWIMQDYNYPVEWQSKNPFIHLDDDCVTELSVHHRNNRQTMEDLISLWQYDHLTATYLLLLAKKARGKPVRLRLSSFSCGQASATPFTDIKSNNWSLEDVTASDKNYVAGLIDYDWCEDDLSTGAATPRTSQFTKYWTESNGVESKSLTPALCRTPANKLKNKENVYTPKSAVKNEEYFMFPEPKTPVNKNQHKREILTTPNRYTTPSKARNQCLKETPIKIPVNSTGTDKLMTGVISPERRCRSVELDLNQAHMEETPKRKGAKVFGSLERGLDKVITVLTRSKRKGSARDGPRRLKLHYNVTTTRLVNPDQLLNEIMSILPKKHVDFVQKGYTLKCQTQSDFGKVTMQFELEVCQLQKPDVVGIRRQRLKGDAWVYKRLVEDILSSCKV

In the case of `CC(=O)c1cnc2ccc(-c3cc(F)c(O)c(Cl)c3)cc2c1N[C@H]1CC[C@H](NC(=O)[C@H](C)N)CC1` (stereo in doubt) [Example 878], the IC50 (usually the concentration at which inhibition is half-maximal) in the experiment with A549 cells (Homo sapiens, A549, 72 h) was 0.83 µM; in the experiment with 22Rv1 cells (Homo sapiens), 0.096 µM; in the experiment with DU4475 cells (Homo sapiens, DU-4475), 0.03 µM; with HT-1197 cells (Homo sapiens, HT1197, 72 h) it was 21 µM; in the experiment with T47D cells (Homo sapiens, T47D, 72 h), 0.027 µM; at MELK, 0.0079 µM.
For the compound `CCC(=O)c1cnc2ccc(-c3cc(Cl)c(O)c(Cl)c3)cc2c1Nc1ccc(N2CCC(N(C)C)C2)nc1` (centres unmarked) [Example 863, 1-(6-(3,5-dichloro-4-hydroxyphenyl)-4-((6-(3-(dimethylamino)pyrrolidin-1-yl)pyridin-3-yl)amino)quinolin-3-yl)propan-1-one], the IC50 in the experiment with A549 cells (Homo sapiens, A549, 72 h) worked out at 0.5 µM; with 22Rv1 cells (Homo sapiens) it was 0.59 µM; in the experiment with DU4475 cells (Homo sapiens, DU-4475), 0.31 µM; in the experiment on HT-1197 cells (Homo sapiens, HT1197, 72 h), 14 µM; in the experiment with T47D cells (Homo sapiens, T47D, 72 h) it was 0.44 µM; on MELK, 0.0039 µM.
With `[2H]C([2H])([2H])N(C[C@H]1CC[C@H](Nc2c(C(C)=O)cnc3ccc(-c4cc(Cl)c(O)c(Cl)c4)cc23)CC1)C([2H])([2H])[2H]` [Example 864, 1-(6-(3,5-dichloro-4-hydroxyphenyl)-4-((trans-4-((dimethyl-d6-amino)methyl)cyclohexyl)amino)quinolin-3-yl)ethanone dihydrochloride], the IC50 in the experiment on A549 cells (Homo sapiens, A549, 72 h) stood at 0.11 µM; in the experiment on 22Rv1 cells (Homo sapiens), 0.081 µM; in the experiment on DU4475 cells (Homo sapiens, DU-4475), 0.043 µM; with HT-1197 cells (Homo sapiens, HT1197, 72 h) it was 1.3 µM; in the experiment on T47D cells (Homo sapiens, T47D, 72 h), 0.067 µM; on MELK it was 0.0011 µM.
As for `CC(=O)c1cnc2ccc(-c3cc(Cl)c(O)c(Cl)c3)cc2c1N[C@H]1CC[C@H](C(=O)N(C)C)CC1` [Example 865, (1r,4r)-4-((3-acetyl-6-(3,5-dichloro-4-hydroxyphenyl)quinolin-4-yl)amino)-N,N-dimethylcyclohexanecarboxamide hydrochloride], the half-maximal inhibitory concentration (IC50) came out at 0.86 µM with A549 cells (Homo sapiens, A549, 72 h); 1.5 µM in the experiment with 22Rv1 cells (Homo sapiens); 0.94 µM in the experiment with DU4475 cells (Homo sapiens, DU-4475); 3.9 µM with HT-1197 cells (Homo sapiens, HT1197, 72 h); 0.38 µM with T47D cells (Homo sapiens, T47D, 72 h); 0.0093 µM on MELK.
Regarding `CC(=O)c1cnc2cc(C)c(-c3cc(Cl)c(O)c(Cl)c3)cc2c1Nc1ccc(N2CCN(C)CC2)nc1` [Example 866, 1-(6-(3,5-dichloro-4-hydroxyphenyl)-7-methyl-4-((6-(4-methylpiperazin-1-yl)pyridin-3-yl)amino)quinolin-3-yl)ethanone hydrochloride], the IC50 with A549 cells (Homo sapiens, A549, 72 h) was 2.3 µM; in the experiment on 22Rv1 cells (Homo sapiens), 4.1 µM; in the experiment on DU4475 cells (Homo sapiens, DU-4475), 2.9 µM; in the experiment on HT-1197 cells (Homo sapiens, HT1197, 72 h), 4.5 µM; in the experiment on T47D cells (Homo sapiens, T47D, 72 h), 2.4 µM; at MELK it was 0.34 µM.
Consider `CC(=O)c1cnc2ccc(-c3cc(F)c(O)c(Cl)c3)cc2c1Nc1cnc(C)c(CCN2CCCC2)c1` [Example 867, 1-(6-(3-chloro-5-fluoro-4-hydroxyphenyl)-4-((6-methyl-5-(2-(pyrrolidin-1-yl)ethyl)pyridin-3-yl)amino)quinolin-3-yl)ethanone], for which the IC50 was found to be 1.6 µM in the experiment with A549 cells (Homo sapiens, A549, 72 h); 4.6 µM in the experiment on 22Rv1 cells (Homo sapiens); 1.3 µM in the experiment on DU4475 cells (Homo sapiens, DU-4475); 53 µM in the experiment with HT-1197 cells (Homo sapiens, HT1197, 72 h); 2.9 µM in the experiment with T47D cells (Homo sapiens, T47D, 72 h); 0.014 µM on MELK.
In the case of `CCN(CC)CCO[C@H]1CC[C@H](Nc2c(C(C)=O)cnc3ccc(-c4cc(F)c(O)c(Cl)c4)cc23)CC1` [Example 869, 1-(6-(3-chloro-5-fluoro-4-hydroxyphenyl)-4-((1R,4R)-4-(2-(diethylamino)ethoxy)cyclohexyl)amino)quinolin-3-yl)ethanone hydrochloride], the IC50 came to 0.23 µM in the experiment on A549 cells (Homo sapiens, A549, 72 h); 0.32 µM in the experiment on 22Rv1 cells (Homo sapiens); 0.26 µM with DU4475 cells (Homo sapiens, DU-4475); 0.7 µM in the experiment with HT-1197 cells (Homo sapiens, HT1197, 72 h); 0.084 µM with T47D cells (Homo sapiens, T47D, 72 h); 0.01 µM at MELK.
In the case of `CC(=O)c1cnc2ccc(-c3cc(F)c(O)c(Cl)c3)cc2c1N[C@H]1CC[C@H](C(=O)N(C)C)CC1` [Example 870, (1r,4r)-4-((3-acetyl-6-(3-chloro-5-fluoro-4-hydroxyphenyl)quinolin-4-yl)amino)-N,N-dimethylcyclohexanecarboxamide hydrochloride], the 50% inhibitory concentration (IC50) in the experiment with A549 cells stood at 1.6 µM; in the experiment with 22Rv1 cells, 2.3 µM; with DU4475 cells, 2.1 µM; in the experiment on HT-1197 cells, 3.5 µM; in the experiment with T47D cells (72 hours), 0.53 µM; on MELK, 0.035 µM.
Take `CC(=O)c1cnc2ccc(-c3cc(Cl)c(O)c(Cl)c3)cc2c1Nc1cnc(C)c(CCN2CCCC2)c1` [Example 871, 1-(6-(3,5-dichloro-4-hydroxyphenyl)-4-((6-methyl-5-(2-(pyrrolidin-1-yl)ethyl)pyridin-3-yl)amino)quinolin-3-yl)ethanone]: the 50% inhibitory concentration (IC50) was determined as 0.4 µM in the experiment with A549 cells (Homo sapiens, A549, 72 h); 0.82 µM in the experiment with 22Rv1 cells (Homo sapiens); 0.33 µM in the experiment on DU4475 cells (Homo sapiens, DU-4475); 25 µM in the experiment with HT-1197 cells (Homo sapiens, HT1197, 72 h); 1.8 µM in the experiment with T47D cells (Homo sapiens, T47D, 72 h); 0.0028 µM at MELK.
For the compound `CC(=O)c1cnc2ccc(-c3cc(F)c(O)c(Cl)c3)cc2c1N[C@H]1CC[C@H](NC(=O)C2CCCN2C)CC1` (stereo partly drawn) [Example 874, N-(1R,4R)-4-((3-acetyl-6-(3-chloro-5-fluoro-4-hydroxyphenyl)quinolin-4-yl)amino)cyclohexyl)-1-methylpyrrolidine-2-carboxamide hydrochloride], the IC50 in the experiment on A549 cells (Homo sapiens, A549, 72 h) was 0.14 µM; in the experiment with 22Rv1 cells (Homo sapiens), 0.18 µM; with DU4475 cells (Homo sapiens, DU-4475), 0.12 µM; in the experiment with HT-1197 cells (Homo sapiens, HT1197, 72 h), 1 µM; with T47D cells (Homo sapiens, T47D, 72 h) it was 0.04 µM; at MELK it was 0.016 µM.
As to `CC(=O)c1cnc2ccc(-c3cc(Cl)c(O)c(Cl)c3)cc2c1N[C@H]1CC[C@H](NC(=O)C2CCCN2C)CC1` (stereo partly drawn) [Example 875, N-(1R,4R)-4-((3-acetyl-6-(3,5-dichloro-4-hydroxyphenyl)quinolin-4-yl)amino)cyclohexyl)-1-methylpyrrolidine-2-carboxamide hydrochloride], the IC50 in the experiment with A549 cells (Homo sapiens, A549, 72 h) was found to be 0.24 µM; with 22Rv1 cells (Homo sapiens), 0.29 µM; in the experiment with DU4475 cells (Homo sapiens, DU-4475) it was 0.21 µM; with HT-1197 cells (Homo sapiens, HT1197, 72 h), 4.4 µM; in the experiment on T47D cells (Homo sapiens, T47D, 72 h), 0.14 µM; at MELK, 0.0035 µM.
For `CC(=O)c1cnc2ccc(-c3cc(F)c(O)c(Cl)c3)cc2c1N[C@H]1CC[C@H](NC(=O)CN(C)C)CC1` [Example 876], the IC50 in the experiment on A549 cells (Homo sapiens, A549, 72 h) was determined as 0.16 µM; in the experiment with 22Rv1 cells (Homo sapiens) it was 0.14 µM; with DU4475 cells (Homo sapiens, DU-4475), 0.092 µM; in the experiment on HT-1197 cells (Homo sapiens, HT1197, 72 h), 1.5 µM; with T47D cells (Homo sapiens, T47D, 72 h), 0.033 µM; at MELK it was 0.0088 µM.
As to `CC(=O)c1cnc2ccc(-c3cc(Cl)c(O)c(Cl)c3)cc2c1N[C@H]1CC[C@H](NC(=O)CN(C)C)CC1` [Example 877, N-(1R,4R)-4-((3-acetyl-6-(3,5-dichloro-4-hydroxyphenyl)quinolin-4-yl)amino)cyclohexyl)-2-(dimethylamino)acetamide hydrochloride], the 50% inhibitory concentration (IC50) came to 0.2 µM in the experiment on A549 cells (Homo sapiens, A549, 72 h); 0.18 µM in the experiment with 22Rv1 cells (Homo sapiens); 0.11 µM in the experiment with DU4475 cells (Homo sapiens, DU-4475); 2 µM in the experiment with HT-1197 cells (Homo sapiens, HT1197, 72 h); 0.11 µM in the experiment on T47D cells (Homo sapiens, T47D, 72 h); 0.0027 µM at MELK.
Regarding `CC(N)C(=O)N[C@H]1CC[C@H](Nc2c(C(=O)C(C)(C)C)cnc3ccc(-c4cc(Cl)c(O)c(Cl)c4)cc23)CC1` (stereo partly drawn) [Example 928, 2-amino-N-((1R,4R)-4-((6-(3,5-dichloro-4-hydroxyphenyl)-3-pivaloyl-quinolin-4-yl)amino)cyclohexyl) propanamide hydrochloride], the concentration for half-maximal inhibition (IC50) in the experiment with A549 cells (Homo sapiens, A549, 72 h) was 4.1 µM; in the experiment with 22Rv1 cells (Homo sapiens), 2 µM; in the experiment with DU4475 cells (Homo sapiens, DU-4475) it was 1.1 µM; in the experiment on HT-1197 cells (Homo sapiens, HT1197, 72 h) it was 8.1 µM; with T47D cells (Homo sapiens, T47D, 72 h) it was 1.4 µM.
